Assay type in all cases: in vivo
Test [1] has as its system mice exposed to hypoxia in hermovolume. The test can be described thus: Hypoxia with hypercapnia in hermovolume. On the procedure: (§1) White nondescript male mice with body weight 22-28 g were used in the experiments. Each dose level was studied in 10 animals. Control animals received equivalent volume of distilled water. Nooglutyl was used as reference agent. Study compounds were administered intraperitoneally 40 minutes before the experiment.
(§2) Acute hypobaric hypoxia was simulated in flow-exhaust chamber. Pressure was measured with altimeter, and elevation speed with variometer. The animals were “elevated” at the speed 20 m/s to the stage at 11000 m. The exposure lasted 10 minutes. Then the animals were mover down to the baseline level for 5 minutes. Hypoxia with hypercapnia in hermovolume was created by placement of the animal into 200 ml hermetically sealed glass vessels. Life period of the animals under hypoxic conditions was recorded. Each group comprised 10 animals.

Test [2] deals with mice exposed to hypobaric hypoxia. The test can be described thus: Acute hypobaric hypoxia in flow-exhaust chamber. On the procedure: as §1, §2
In another test the test system is rats with amnesia. In words: Antiamnestic activity: passive avoidance response (PAR) with amnesia by maximum electric shock. The settings on record: rats with electric shock amnesia, 24 hours after learning. On the procedure:
White nondescript male rats with body weight 250-280 g were used in the experiments. Each dose level was studied in 10 animals. Control animals received equivalent volume of distilled water. Nooglutyl was used as reference agent. Study compounds were administered intraperitoneally 40 minutes before the experiment. Experiment was carried out on the standard automated unit for passive avoidance response (Passive Avoidance) supplied by Lafayette Instrument Co., (USA) (Ader et al. Retention of a passive avoidance response as a function of the intensity and duration of electric shock. Psycho Sci. 1972, v. 26, p. 125-128; Voronina T. A. et al. “Textbook for Experimental (Preclinical Study) of novel pharmacological compounds”. Moscow, Medicina. 2005, p. 253-263 and 308-320). The unit was designed as small platform situated 1 m above the floor, which was illuminated with special lamp, and dark chamber with electrode floor connected with the platform. The rat was placed on illuminated platform in front of the entry to the dark chamber with its tail directed to the entry; the animal preferred dark chamber and quickly ran into it. In the dark chamber the animal received single pain stimulus with electric current (0.45 mA) and memorized that it was dangerous to enter dark chamber. Duration of the stimulus was determined from the running out of the animal from the dark chamber. To achieve amnesia maximum electric shock was used (50 Hz, 0.2 sec), which was made through corneal electrodes immediately after learning. Electric shock caused obliteration of the memory trace. Test for reproduction of passive avoidance response (PAR) (for retention of memory trace) was performed 24 hours after learning session and electric shock. The animal was placed on illuminated platform once again, and time of the presence on illuminated platform and dangerous dark chamber (no current was conducted to the floor during reproduction of PAR).
Control trained animals with reproduction of PAR without electric shock preferred to stay on illuminated platform. Obliteration of training with electric shock causes amnesia in the animals; as a result, the animals with short latent period enter dark chamber and stay there considerably longer than animals without amnesia (Table 2).

The test system of the next test is mice SAM P 10. The test can be described thus: Antidepressant activity: forced swimming in mice SAM. The settings on record: 10 mg/kg, first 6 minutes of forced swimming. On the procedure: Exp. Gerontolol. 1997, […]. et al. Age-related deterioration in conditional avoidance task in the SAM-P/10 mouse, an animal model of spontaneous brain atrophy. Brain Res., 1993, v. 608, p. 266-272). To assess depressive condition the method of forced swimming was used (Porsolt R. D. et al., Behavioral despair in rats: a new model sensitive to antidepressant treatment. Europ. J. […] The mice were placed into cylinder 10 cm in diameter and 25 cm height. Cylinder was filled with water by 1⁄3 (27° C.). After unsuccessful attempts to get out of the water the animals have typical immovable posture, which is regarded as manifestation of “despair”.

The subject of test [3] is rats with hemorrhagic stroke. The test can be described thus: Hemorrhagic stroke: reproduction of passive avoidance response. The settings on record: Nimodipin at 01.mg/kg. An excerpt: White nondescript male rats with body weight 200-250 g, which lived in vivarium and had feed (standard palletized feed) and water ad libitum, with natural alternation of day and night, were used in the experiments. Hemorrhagic stroke (local cerebral hemorrhage) was simulated according to method by A. N. Makarenko et al. (Method of local hemorrhage simulation I various structures of the brain in experimental animals. Journal Visshei Nervnoy Deyatelnosti—Journal of Higher Nervous Activities, 2002, v. 52, No 6, p. 765-768). In nembutal-anesthetized rats (40 mg/kg, i.m.) destruction of the brain tissue in capsule interna area was made with the use of special device (mandarin-knife) followed by application of blood (0.02-0.03 ml) taken from under the rat's tongue to the damaged area (within 2-3 minutes). False-operated animals underwent scalping and craniotomy. The animals were divided into 5 groups: intact rats, false-operated rats, animals with hemorrhagic stroke received nooglutyl at 20 mg/kg, and animals with hemorrhagic stroke received Compound I at 20 mg/kg. Effects were recorded within 24 hours and 14 days after the surgery. Learning ability and memory of the rats was examined in the model of passive avoidance response (PAR, Passive Avoidance supplied by Lafayette Instrument Co., USA). To determine neurological deficit in the animals Stroke-index McGrow scale modified by I. V. Gannushkina (Functional architectonics of the brain, Moscow, Medicina, 1977, 224 p.) was used. The severity of the condition was determined by the sum of the points. The number of rats with mild symptoms up to 2.5 points of Stroke-index scale (apathy, weakness of the extremities, unilateral semiptosis, tremor, circus movements) and severe manifestations of neurological disorders (3 to 10 points)—paresis of the extremities, palsy of low extremities, lateral position. The animals received single dose of nooglutyl and Compound I at the same dose 20 mg/kg intraperitoneally within 3-3.5 hours after the surgery. Controlled animals were treated with saline. At onset of the experiment each group comprised 15-20 animals. Mortality of the rats was recorded throughout the observation period (14 days). Statistical analysis was made using parametrical and non-parametrical methods and Biostat software. Nimodipin administered at 01.mg/kg according to above scheme was considered as a standard.

Where [4] appears, read: 30 mg/kg intraperitoneally 40 minutes before the experiment.
The mark [5] stands for this setting: 60 mg/kg intraperitoneally 40 minutes before the experiment.
Setting [6] is: 120 mg/kg intraperitoneally 40 minutes before the experiment.
The mark [7] stands for this setting: PAR reproduction within 24 hours.
Setting [8] is: PAR reproduction within 14 days.

SMILES strings stand for the structures.

Take `O=C([O-])CC[C@H](NC(=O)c1cncc(O)c1)C(=O)[O-].[K+].[K+]` [Compound III, di-K salt of N-(5-hydroxynicotinoyl)-L-glutamic acid]: the “Life interval of mice (minutes) exposed to hypoxia in hermovolume” value in test [1] (setting [4]) worked out at 14.2 ± 0.39 min; in test [1] (setting [5]) it was 15.9 ± 0.45 min; in test [1] (setting [6]) it was 17.4 ± 0.65 min. Also, the “Life interval of mice (minutes) exposed to hypobaric hypoxia” value in test [2] (setting [4]) worked out at 3.91 ± 0.63 min; in test [2] (setting [5]), 5.52 ± 0.54 min. Besides, the “Time of presence of animals while PAR reproduction (seconds) in the dark chamber” value with rats with amnesia (25 mg/kg intraperitoneally) stood at 70.7 ± 9.4 s; with rats with amnesia (50 mg/kg intraperitoneally) it was 68.6 ± 7.1 s. Also, the “Time of presence of animals while PAR reproduction (seconds) on the illuminated platform” value turned out to be 49.3 ± 10.1 s with rats with amnesia (25 mg/kg intraperitoneally) and 51.4 ± 9.8 s with rats with amnesia (50 mg/kg intraperitoneally).

Turning to `CN(C)CCC=C1c2ccccc2CCc2ccccc21` [Amitryptilin, reference compound], the “Period of active behaviour” value with mice SAM P 10 stood at 225.10 ± 25.19 s.

Consider `COCCOC(=O)C1=C(C)NC(C)=C(C(=O)OC(C)C)C1c1cccc([N+](=O)[O-])c1` (centres unmarked) [Nimodipin], for which, in test [3] (setting [7]), the “Latent period of entry to dark chamber (c)” value was 123.7 ± 19.6 c and the “Number of animals, which did not enter dark chamber (%)” value was determined as 58%. In test [3] (setting [8]), the “Latent period of entry to dark chamber (c)” value was determined as 77.5 ± 32.8 c and the “Number of animals, which did not enter dark chamber (%)” value is 33$ %.

For the molecule `O=C([O-])CC[C@H](NC(=O)c1cncc(O)c1)C(=O)[O-].[Na+].[Na+]` [Compound II, di-Na salt of N-(5-hydroxynicotinoyl)-L-glutamic acid], the “Life interval of mice (minutes) exposed to hypoxia in hermovolume” value in test [1] (setting [4]) is 14.1 ± 0.71 min; in test [1] (setting [5]), 16.3 ± 0.64 min; in test [1] (setting [6]) it was 17.8 ± 0.69 min. The results for the “Life interval of mice (minutes) exposed to hypobaric hypoxia” value in test [2] (setting [4]) and in test [2] (setting [5]) were 6.51 ± 0.82 min and 5.95 ± 0.84 min, respectively. The “Time of presence of animals while PAR reproduction (seconds) in the dark chamber” value in the test with rats with amnesia (25 mg/kg intraperitoneally) is 78.7 ± 12.3 s; with rats with amnesia (50 mg/kg intraperitoneally), 67.5 ± 15.1 s. The “Time of presence of animals while PAR reproduction (seconds) on the illuminated platform” value came out at 41.3 ± 11.6 s in the test on rats with amnesia (25 mg/kg intraperitoneally) and 52.5 ± 12.3 s with rats with amnesia (50 mg/kg intraperitoneally).

Source of the values: patent US8030493B2, “Monovalent and divalent salts of N-(5-hydroxynicotinoil) -L-glutamic acid exhibiting psychotropic (antidepressant and anxiolytic), neuroprotective, geroprotective and cerebroprotective action” (Obschestvo S Ogranichennoy Otvetstvennostyu “Natsionalnaya …, priority 2006, dated 2011).
